Measurements reported in patent publication US5215769A, “Calcium fortified dressing salad product” (The Procter & Gamble Company, priority 1992, dated 1993).

Columns and labels:
physchem = assay: physchem
Text: The exact method for determining this is described hereinafter.
The method of solubility used to determine the data in Table I, is described in the Analytical Methods section below.

[1] = Bioavailability of calcium citrate malate (statement); settings: even under neutral conditions

Molecule | solubility (physchem) | bioavailability [1]
O=C(O)CC(O)C(=O)O (racemic) [calcium malate] | 660 mg/mL | 
calcium citrate malate |  | bioavailable
